In ChEMBL document CHEMBL4699602, “Stapled and Xenopus Glucagon-Like Peptide 1 (GLP-1)-Based Dual GLP-1/Gastrin Receptor Agonists with Improved Metabolic Benefits in Rodent Models of Obesity and Diabetes” (J Med Chem, 2020):
The source made the active and inactive calls. The rule behind the calls is not given here. *1 amine or outer side, *2 acyl side, *3 side chain or, on linkers, in order; H or OH if unused. Bridges are numbered along the chain shown (N, C = ends). [ ]: non-standard residue; d: D form. X1 = CCCCCCCCCCCCCCCC(=O)NCCCCCCNC(=O)C(CCCCNC(=O)CCN1C(=O)CC([*:1])C1=O)NC(=O)CCN1C(=O)CC([*:2])C1=O; AEEA = NCCOCCOCC(=O)O; Aib = CC(C)(N)C(=O)O

What was measured:
Mus musculus [1] = assay: Reduction in body weight in C57BL/6 mouse model of high-fat diet induced obesity at 25 nmol/kg, sc BID for 21 days relative to control; assay type: functional; parameters: scale not given: the % may be the effect or the level left; settings: time 21 day
[2] = Renal toxicity in ICR mouse assessed as effect on blood urea nitrogen level at 1000 nmol/kg, sc BID for 14 days; assay type: organism-based; settings: in vivo, 336 h, time 14 day
[3] = target: T1, Cholecystokinin receptor type A (Homo sapiens, UniProt P32238); assay: Agonist activity at human CCK-1R expressed in HEK293 cells assessed as stimulation of ERK phosphorylation incubated for 5 mins; assay type: cell-based
T1 sequence (P32238 whole entry): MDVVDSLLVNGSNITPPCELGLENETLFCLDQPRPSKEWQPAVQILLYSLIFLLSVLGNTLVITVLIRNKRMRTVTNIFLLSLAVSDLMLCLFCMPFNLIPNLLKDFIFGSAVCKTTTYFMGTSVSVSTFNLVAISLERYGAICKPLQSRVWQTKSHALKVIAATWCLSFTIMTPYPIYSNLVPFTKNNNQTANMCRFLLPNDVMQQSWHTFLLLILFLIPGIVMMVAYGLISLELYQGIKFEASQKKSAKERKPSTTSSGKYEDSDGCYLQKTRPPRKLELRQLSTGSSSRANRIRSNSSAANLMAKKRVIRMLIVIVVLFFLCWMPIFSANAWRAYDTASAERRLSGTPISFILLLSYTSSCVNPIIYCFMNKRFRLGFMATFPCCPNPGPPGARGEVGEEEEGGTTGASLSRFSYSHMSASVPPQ

Mus musculus [4] = assay: Improvement in fasted blood glucose level in db/db mouse at 25 nmol/kg, sc BID for 6 weeks followed by another 6 week saline treatment relative to control; assay type: functional, organism-based
Mus musculus [5] = assay: Improvement in pancreatic beta cell area level in db/db mouse at 25 nmol/kg, sc BID for 21 days relative to control; assay type: functional, organism-based; settings: time 21.0 day
Mus musculus [6] = assay: Reduction in fasting blood glucose in C57BL/6 mouse model of high-fat diet induced obesity at 25 nmol/kg, sc BID for 21 days relative to control; assay type: functional, organism-based; settings: time 21.0 day
[7] = Hepatotoxicity in ICR mouse assessed as effect on alanine aminotransferase level at 1000 nmol/kg, sc BID for 14 days; assay type: toxicity, organism-based; settings: in vivo, 336 h, time 14 day
Mus musculus [8] = assay: Improvement in glucose tolerance in C57BL/6 mouse model of high-fat diet induced obesity at 25 nmol/kg, sc BID for 21 days relative to control; assay type: functional, organism-based; settings: time 21.0 day
Mus musculus [9] = assay: Hypoglycemic activity in db/db mouse assessed as decrease in glucose excursion at 25 nmol/kg, ip dosed 30 mins before test and measured up to 120 mins by OGTT method; assay type: functional, organism-based; settings: time 150.0 min
[10] = target: Glucagon-like peptide 1 receptor (Homo sapiens, UniProt P43220); assay: Agonist activity at human GLP-1R expressed in HEK293 cells assessed as stimulation of cAMP accumulation incubated for 20 mins; assay type: functional, cell-based
Glucagon-like peptide 1 receptor, sequence (P43220 whole entry): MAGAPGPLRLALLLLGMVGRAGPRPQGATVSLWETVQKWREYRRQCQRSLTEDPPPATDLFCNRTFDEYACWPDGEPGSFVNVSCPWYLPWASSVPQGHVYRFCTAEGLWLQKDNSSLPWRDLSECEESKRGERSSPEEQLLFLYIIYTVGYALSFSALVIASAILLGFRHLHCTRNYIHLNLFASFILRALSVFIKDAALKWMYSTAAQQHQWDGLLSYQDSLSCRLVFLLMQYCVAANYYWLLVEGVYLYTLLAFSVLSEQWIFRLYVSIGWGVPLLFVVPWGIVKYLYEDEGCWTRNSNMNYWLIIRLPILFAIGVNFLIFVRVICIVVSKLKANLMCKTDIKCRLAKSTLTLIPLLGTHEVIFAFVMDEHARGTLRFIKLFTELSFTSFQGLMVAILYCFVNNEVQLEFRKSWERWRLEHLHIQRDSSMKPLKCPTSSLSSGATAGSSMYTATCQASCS

Mus musculus [11] = assay: Improvement in pancreatic islet area and number level in db/db mouse at 25 nmol/kg, sc BID for 21 days relative to control; assay type: functional, organism-based; settings: time 21.0 day
Mus musculus [12] = assay: Reduction in body fat content in C57BL/6 mouse model of high-fat diet induced obesity at 25 nmol/kg, sc BID for 21 days relative to control; assay type: functional; parameters: scale not given: the % may be the effect or the level left; settings: time 21 day
Mus musculus [13] = assay: Inhibition of solid-phase gastric emptying in fasted ICR mouse at 25 nmol/kg, ip measured after 4 hrs by LC-MS/MS analysis; assay type: functional, organism-based
[14] = Half life in ICR mouse at 50 nmol/kg, sc up to 24 hrs by LC-MS/MS analysis; assay type: ADME, organism-based; settings: in vivo
Rattus norvegicus [15] = assay: Reduction of food intake in Sprague-Dawley rat at 25 nmol/kg, ip after 24 hrs; assay type: functional, organism-based
[16] = target: T2, Gastrin/cholecystokinin type B receptor (Homo sapiens, UniProt P32239); assay: Agonist activity at human CCK-2R expressed in HEK293 cells assessed as stimulation of ERK phosphorylation incubated for 5 mins; assay type: cell-based
T2 sequence (P32239 whole entry): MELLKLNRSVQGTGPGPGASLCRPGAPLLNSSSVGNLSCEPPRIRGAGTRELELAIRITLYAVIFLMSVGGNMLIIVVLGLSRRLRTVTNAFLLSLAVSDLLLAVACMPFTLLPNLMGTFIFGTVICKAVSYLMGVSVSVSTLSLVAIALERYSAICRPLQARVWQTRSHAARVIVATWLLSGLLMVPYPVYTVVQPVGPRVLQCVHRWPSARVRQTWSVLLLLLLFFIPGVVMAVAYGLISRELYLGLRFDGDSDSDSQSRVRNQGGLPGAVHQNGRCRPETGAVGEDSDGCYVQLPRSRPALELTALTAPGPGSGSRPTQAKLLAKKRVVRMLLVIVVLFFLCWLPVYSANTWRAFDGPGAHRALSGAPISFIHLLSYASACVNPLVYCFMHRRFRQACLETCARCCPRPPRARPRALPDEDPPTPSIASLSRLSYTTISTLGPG

[17] = Toxicity in Sprague-Dawley rat assessed as induction of kaolin intake at 25 nmol/kg, ip after 24 hrs by Kaolin consumption test; assay type: organism-based; settings: in vivo
Mus musculus [18] = assay: Improvement in fasted blood glucose level in db/db mouse at 25 nmol/kg, sc BID for 21 days relative to control; assay type: functional, organism-based; settings: time 21.0 day
[19] = Renal toxicity in ICR mouse assessed as effect on serum creatinine level at 1000 nmol/kg, sc BID for 14 days; assay type: organism-based; settings: in vivo, 336 h, time 14 day
Mus musculus [20] = assay: Reduction in body weight gain in db/db mouse at 25 nmol/kg, sc BID for 21 days relative to control; assay type: functional, organism-based; settings: time 21.0 day
Rattus norvegicus [21] = assay: Reduction of food intake in Sprague-Dawley rat at 25 nmol/kg, sc BID for 12 days; assay type: functional, organism-based; settings: time 12.0 day
INS1 [22] = assay: Toxicity in rat INS1 cells assessed as reduction cell viability up to 1000 nM after 24 hrs by MTT assay; assay type: cell-based; settings: ins1, 24 h
[23] = Hepatotoxicity in ICR mouse assessed as effect on aspartate aminotransferase level at 1000 nmol/kg, sc BID for 14 days; assay type: toxicity, organism-based; settings: in vivo, 336 h, time 14 day
Mus musculus [24] = assay: Insulinotropic activity in db/db mouse assessed as improvement in plasma insulin level at 25 nmol/kg, ip dosed 30 mins before test and measured up to 60 mins by OGTT method; assay type: functional, organism-based; settings: time 90.0 min
Mus musculus [25] = assay: Inhibition of liquid-phase gastric emptying in 6 hrs fasted ICR mouse assessed as reduction in blood acetaminophen concentration at 25 nmol/kg, ip dosed 30 mins before acetaminophen dosing by LC-MS/MS analysis; assay type: functional, organism-based
Mus musculus [26] = assay: […] activity in non-fasted db/db mouse assessed as improvement in glucose tolerance at dosed intraperitoneally 30 mins before test and measured up to 120 mins by OGTT method; assay type: functional, organism-based; settings: time 150.0 min
INS1 [27] = assay: Protection against glucotoxicity in rat INS1 cells assessed as recovery of cell viability after 24 hrs in presence of glucotoxicity media by MTT assay; assay type: functional, cell-based
[28] = Tmax in ICR mouse at 50 nmol/kg, sc up to 24 hrs by LC-MS/MS analysis; assay type: ADME, organism-based; settings: in vivo
Mus musculus [29] = assay: Hypoglycemic activity in non-fasted db/db mouse assessed as improvement in glucose tolerance at dosed intraperitoneally 30 mins before test and measured up to 120 mins by OGTT method; assay type: functional, organism-based; settings: time 150.0 min
Mus musculus [30] = assay: Hypoglycemic activity in db/db mouse assessed as improvement in glucose tolerance at 25 nmol/kg, ip dosed 30 mins before test and measured up to 120 mins by OGTT method; assay type: functional, organism-based; settings: time 150.0 min
Mus musculus [31] = assay: Reduction in Hb1Ac level in db/db mouse at 25 nmol/kg, sc BID for 6 weeks followed by another 6 week saline treatment relative to control; assay type: functional, organism-based
Mus musculus [32] = assay: Improvement in insulin content in db/db mouse at 25 nmol/kg, sc BID for 21 days relative to control; assay type: functional, organism-based; settings: time 21.0 day
Mus musculus [33] = assay: Reduction in serum triglyceride in C57BL/6 mouse model of high-fat diet induced obesity at 25 nmol/kg, sc BID for 21 days relative to control; assay type: functional, organism-based; settings: time 21.0 day
Mus musculus [34] = assay: Reduction in serum cholesterol in C57BL/6 mouse model of high-fat diet induced obesity at 25 nmol/kg, sc BID for 21 days relative to control; assay type: functional, organism-based; settings: time 21.0 day
[35] = AUC (0 to infinity) in ICR mouse at 50 nmol/kg, sc up to 24 hrs by LC-MS/MS analysis; assay type: ADME, organism-based; parameters: route subcutaneous, dose 50 nmol/kg, time <=24; settings: in vivo
[36] = Toxicity in Sprague-Dawley rat assessed as induction of kaolin intake at 25 nmol/kg, sc BID for 10 days by Kaolin consumption test; assay type: organism-based; settings: in vivo, 240 h, time 10 day
Mus musculus [37] = assay: Improvement in glucose tolerance in db/db mouse at 25 nmol/kg, sc BID for 6 weeks followed by another 6 week saline treatment relative to control; assay type: functional, organism-based
Mus musculus [38] = assay: Improvement in HbA1c level in db/db mouse at 25 nmol/kg, sc BID for 21 days relative to control; assay type: functional, organism-based; settings: time 21.0 day
Mus musculus [39] = assay: Reduction in cumulated food intake in db/db mouse at 25 nmol/kg, sc BID for 21 days relative to control; assay type: functional, organism-based; settings: time 21.0 day
Mus musculus [40] = assay: Inhibition of pancreatic non-beta cell area (alpha-cell) level in db/db mouse at 25 nmol/kg, sc BID for 21 days relative to control; assay type: functional, organism-based; settings: time 21.0 day

H-H[Aib]EGTYTNDVTEYCEEEAAKCFIEWLIKGKPSSGAPPPS[AEEA][AEEA]YGWLDF-NH2 (linker 14-21 via X1)
Activity (Mus musculus [1]): 26.3%
Activity [2]: Non-Toxic
EC50 [3]: > 1000 nM
Activity (Mus musculus [4]): Active
Activity (Mus musculus [5]): Active
Activity (Mus musculus [6]): Active
Activity [7]: Non-Toxic
Activity (Mus musculus [8]): Active
Activity (Mus musculus [9]): Active
EC50 [10]: 0.022 nM
Activity (Mus musculus [11]): Active
Activity (Mus musculus [12]): 32.2%
inhibition (Mus musculus [13]): Active
half-life [14]: 4.4 h
Activity (Rattus norvegicus [15]): Active
EC50 [16]: 7.3 nM
Activity [17]: Non-Toxic
Activity (Mus musculus [18]): Active
Activity [19]: Non-Toxic
Activity (Mus musculus [20]): Active
Activity (Rattus norvegicus [21]): Active
Activity (INS1 [22]): Non-Toxic
Activity [23]: Non-Toxic
Activity (Mus musculus [24]): Active
inhibition (Mus musculus [25]): Active
Activity (Mus musculus [26]): Dose-dependent effect
Activity (INS1 [27]): Dose-dependent effect
Tmax [28]: 4 h
Activity (Mus musculus [29]): Dose-dependent effect
Activity (Mus musculus [30]): Active
Activity (Mus musculus [31]): Active
Activity (Mus musculus [32]): Active
Activity (Mus musculus [33]): Active
Activity (Mus musculus [34]): Active
AUC(0-inf) [35]: 15900 ng·h/mL
Activity [36]: Non-Toxic
Activity (Mus musculus [37]): Active
Activity (Mus musculus [38]): Active
Activity (Mus musculus [39]): Active
inhibition (Mus musculus [40]): Active
